Results from patent US20250346564A1 (ARase Therapeutics Inc., priority 2022, published 2025).

What was measured:
PARG [1] = biological target: T1, PARG (Homo sapiens (Human), UniProt Q86W56); assay: PARG target engagement cellular assay (PAR polymer immunostaining after cisplatin); assay type: cell-based; settings: HCC1806 cells treated with cisplatin, then compound titration for 1 h; PAR polymer antibody readout
Experimental: Example a. Inhibition of PARG Target Engagement Cellular Assay
The ability of the compounds of the Examples to inhibit PARG was determined as described below. After treating HCC1806 cells with cisplatin, followed by PARG inhibitor compound titration for 1 h, the cells were fixed in formaldehyde. The cells were permeabilized, blocked, and incubated with antibody against poly (ADP) ribose (PAR) polymer. The cells were then washed and incubated with IR 800 conjugated secondary antibody together with TO-PRO3 iodide nuclear stain. After washing, images of the cells were captured and analyzed on Odyssey CLx instrument and analyzed using LI-COR image studio software.

PARG [2] = biological target: T1, PARG; assay: PARG TFMU assay (4-(trifluoromethyl)umbelliferone substrate); assay type: biochemical; settings: PARG 250 pM or 2 nM, 10-point dose response
Experimental: Example C. Inhibition of PARG TEMU Assay
The ability of the compounds of the Examples to inhibit PARG activity in 4. (trifluoromethyl)umbelliferone (TFMU) assay was determined as described below. PARG inhibitors were added into 384 well plate for a 10-point dose response curve at 1:3 dilutions. TFMU PARG substrate and PARG (250 pM or 2 nM) were then added to the plate to initiate enzymatic reaction. After incubation with the reagent, […] was read. IC50 values were calculated using set control points for 100% inhibition as no enzyme and 0% inhibition 250 pM or 2 nM of PARG enzyme.

T1 sequence (Q86W56 whole entry): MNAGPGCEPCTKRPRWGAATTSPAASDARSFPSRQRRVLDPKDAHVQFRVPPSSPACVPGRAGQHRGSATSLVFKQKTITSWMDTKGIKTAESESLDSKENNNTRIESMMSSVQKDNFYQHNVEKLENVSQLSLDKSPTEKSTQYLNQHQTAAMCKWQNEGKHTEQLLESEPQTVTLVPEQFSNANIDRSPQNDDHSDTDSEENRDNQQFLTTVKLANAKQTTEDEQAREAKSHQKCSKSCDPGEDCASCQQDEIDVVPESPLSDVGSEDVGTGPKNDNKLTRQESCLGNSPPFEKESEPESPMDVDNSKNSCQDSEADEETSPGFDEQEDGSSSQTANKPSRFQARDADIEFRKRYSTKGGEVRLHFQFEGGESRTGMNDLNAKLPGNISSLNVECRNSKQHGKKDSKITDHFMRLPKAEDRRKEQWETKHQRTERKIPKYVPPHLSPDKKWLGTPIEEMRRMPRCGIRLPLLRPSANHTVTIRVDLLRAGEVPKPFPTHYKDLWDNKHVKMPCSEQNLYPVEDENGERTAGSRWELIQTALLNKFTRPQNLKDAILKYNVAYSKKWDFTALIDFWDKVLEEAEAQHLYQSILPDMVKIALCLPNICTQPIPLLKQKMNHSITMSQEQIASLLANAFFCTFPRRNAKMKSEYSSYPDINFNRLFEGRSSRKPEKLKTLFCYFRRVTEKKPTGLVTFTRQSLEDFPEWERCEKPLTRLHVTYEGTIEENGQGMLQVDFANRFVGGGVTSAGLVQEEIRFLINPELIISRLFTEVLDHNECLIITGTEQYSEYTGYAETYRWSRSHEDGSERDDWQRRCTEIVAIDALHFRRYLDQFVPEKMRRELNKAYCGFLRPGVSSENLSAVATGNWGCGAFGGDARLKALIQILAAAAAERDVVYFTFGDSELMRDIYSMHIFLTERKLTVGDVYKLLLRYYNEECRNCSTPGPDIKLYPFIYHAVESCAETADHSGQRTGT

IC50 (PARG [1]): < 10 µM
IC50 (PARG [2]): < 50 nM
SMILES: CC(C)C(=O)N1CCN(c2cc(S(=O)(=O)NC3(C)COC3)cc3c2cnn3-c2nnc(C(F)F)s2)CC1 [Example 6, 1-[5-(difluoromethyl)-1,3,4-thiadiazol-2-yl]-N-(3-methyloxetan-3-yl)-4-[4-(2-methylpropanoyl)piperazin-1-yl]indazole-6-sulfonamide]
